Data on one compound can be found in ChEMBL document CHEMBL5233277, “Oxidative Metabolism as a Modulator of Kratom's Biological Actions” (J Med Chem, 2021).

Data set [1] can be described thus: Drug metabolism in human liver microsomes assessed as mitragynine pseudoindoxyl formation at 1 uM incubated for 60 mins in presence of ketoconazole by LC-MS/MS analysis. It is filed as ADME, Microsome. The note with it: 1 h. A general note: Liver microsomes are vesicles of endoplasmic reticulum, rich in cytochrome P450 enzymes.
The nature of data set [2]: Drug metabolism in human liver microsomes assessed as 3-dehydromitragynine formation at 1 uM incubated for 60 mins in presence of ketoconazole by LC-MS/MS analysis. It counts as ADME, Microsome. The following applies: 1 h.
Data set [3] in a line: Drug metabolism in C57BL/6J mouse plasma assessed as 3-dehydromitragynine formation at ED80, po. It counts as ADME, cell-free.
For data set [4], the system named is Mus musculus. The data set can be described thus: Antinociceptive activity in KOR knock out C57BL/6J mouse at 45 mg/kg, po measured after 20 mins. It counts as functional, organism-based.
In data set [5] the target is Cytochrome P450 3A (Mus musculus, UniProt O09158+Q64464+Q64481+Q9JMA7). The data set can be described thus: Metabolic stability in CYP3A KO C57BL/6J mouse liver microsomes assessed as CYP3A-mediated decomposition by measuring half life at 1 uM incubated for 60 mins in presence of ketoconazole by LC-MS/MS analysis. It is filed as ADME, Microsome. The note with it: 1 h.

The nature of data set [6]: Drug concentration in C57BL/6J mouse brain at 30 mg/kg, sc measured after 20 mins by LC-MS/MS analysis. It is filed as ADME, organism-based. The following applies: read-out: Ct.
Data set [7] concerns Mus musculus. The data set can be described thus: Antinociceptive activity in sc dosed C57BL/6J mouse model assessed as peak effect measured at 20 mins by radiant heat tail flick assay. It is filed as functional. (In general: Hot-plate and tail-flick tests time the reaction to a heat stimulus.)
In data set [8] the test system is Mus musculus. The data set can be described thus: Antinociceptive activity in DOR knock out 129Sv6 mouse at 10 mg/kg, po measured after 15 mins. It counts as functional, organism-based.
Data set [9] can be described thus: Drug metabolism in human S9 fraction assessed as mitragynine pseudoindoxyl formation at 1 uM incubated for 60 mins in absence of NADPH by LC-MS/MS analysis. It is filed as ADME, subcellular. The following applies: s9, 1 h.
The nature of data set [10]: Drug metabolism in human S9 fraction assessed as 3-dehydromitragynine formation at 1 uM incubated for 60 mins in presence of NADPH by LC-MS/MS analysis. It counts as ADME, subcellular. The note with it: s9, 1 h.
Data set [11] is described as follows: Stability in 129Sv6 mouse liver microsomes assessed as half life at 1 uM incubated for 60 mins by LC-MS/MS analysis. It counts as ADME, Microsome. The note with it: 1 h.
The nature of data set [12]: Drug metabolism in 129Sv6 mouse plasma assessed as mitragynine pseudoindoxyl formation at 10 mg/kg, po measured after 15 mins by LC-MS/MS analysis. It counts as ADME, organism-based. The note with it: in vivo, 0.25 h.
The nature of data set [13]: Drug metabolism in human liver microsomes assessed as 3-dehydromitragynine formation at 1 uM incubated for 60 mins in presence of NADPH by LC-MS/MS analysis. It is filed as ADME, Microsome. The following applies: 1 h.
For data set [14], the system named is Mus musculus. The data set can be described thus: Antinociceptive activity in sc dosed C57BL/6J mouse model assessed as time required for peak effect at ED50 by radiant heat tail flick assay. It is filed as functional.
The subject of data set [15] is Mus musculus. The data set can be described thus: Antinociceptive activity in sc dosed 129Sv6 mouse model assessed as peak effect measured at 15 mins by radiant heat tail flick assay. It is filed as functional. The note with it: 129Sv6, 0.25 h.
The nature of data set [16]: Drug metabolism in C57BL/6J mouse brain assessed as 3-dehydromitragynine formation at ED80, po. It counts as ADME, tissue-based.
In data set [17] the test system is Mus musculus. The data set can be described thus: Antinociceptive activity in po dosed 129Sv6 mouse model assessed as time required for peak effect at ED50 by radiant heat tail flick assay. It counts as functional.
Data set [18] can be described thus: Drug metabolism in human S9 fractions assessed as 3-dehydromitragynine formation at 1 uM incubated for 60 mins in absence of NADPH by LC-MS/MS analysis. The note with it: s9, 1 h. It is filed as ADME, subcellular, S9 fraction.
Data set [19] deals with Mus musculus. The data set can be described thus: Antinociceptive activity in MOR knock out 129Sv6 mouse at 10 mg/kg, po measured after 15 mins. It counts as functional, organism-based.
A short description of data set [20]: Toxicity in C57BL/6J mouse assessed as effect on locomotion at 20 mg/kg, po measured after 3 hrs. It counts as organism-based. The note with it: in vivo.
Data set [21] in a line: Drug metabolism in human liver microsomes assessed as compound depletion at 1 uM incubated for 60 mins in absence of NADPH by LC-MS/MS analysis. It is filed as ADME, Microsome. The following applies: 1 h.
Data set [22] is described as follows: Drug metabolism in C57BL/6J mouse liver microsomes assessed as mitragynine pseudoindoxyl formation at 1 uM incubated for 60 mins by LC-MS/MS analysis. It is filed as ADME, Microsome. The following applies: 1 h.

The source made the active and inactive calls. The rule behind the calls is not given here.

For the compound `CC[C@@H]1CN2CCc3c([nH]c4cccc(OC)c34)[C@@H]2C[C@@H]1/C(=C\OC)C(=O)OC`, the Drug metabolism entry in data set [1] was “Metabolite_Notdetected”; in data set [2], “Metabolite_Detected”; in [3], 0.037 µM; in data set [9], “Metabolite_Notdetected”; in data set [10], “Metabolite_Detected”; in data set [12] it was 13 nM. In addition, the Drug metabolism entry in [13] was “Metabolite_Detected”; in [16], 0.094 µM; in data set [18], “Metabolite_Detected”; in data set [21] it was “Metabolite_Notdetected”; in data set [22] it was “Metabolite_Detected”. In addition, the outcome in [4] and in [8] was Active. The results for the t1/2 in data set [5] and in [11] were 25.2 min and 13.5 min, respectively. Also, the concentration at 20 min in [6] was determined as 9.74 µM. Also, the median effective dose (ED50) in data set [7] is 25.9 mg/kg; in data set [15], 57.3 mg/kg. In addition, the Time in [14] and in data set [17] was 15 min each time. Moreover, the outcome in data set [19] was inactive. The Activity result in data set [20] was “Non-Toxic”.

By ED50 is commonly meant the dose at which the effect has come halfway, by size or by number of responders.
